In the supplement of paper PMC10307832:

Columns and labels:
Test in all cases: relative viability (nuclei count vs DMSO), 5 days (fraction); higher = more cells survive
[1] = tested on: CAL-12T
How it was run: (§1)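 For relative viability, nuclei counts in treated wells were divided by those in vehicle wells. Lung cancer cell lines had been pin-tool dosed in 1536-well plates the day after seeding and cultured for 5 days, then fixed and stained in one step (final 0.05% Triton X-100, 1% formaldehyde, 1 ug/ml Hoechst) and imaged at 4×. Doses were one drug alone or a fixed anchor-drug dose plus five library-drug doses (not always all listed) in √10 steps, and values are duplicate-plate medians.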

[2] = tested on: ChaGo-K-1
How it was run: as §1

[3] = tested on: EMC-BAC-2
How it was run: as §1

[4] = tested on: HCC-366
How it was run: as §1

[5] = tested on: HCC-78
How it was run: as §1

[6] = tested on: HOP-62
How it was run: as §1

[7] = tested on: LC-2-ad
How it was run: as §1

[8] = tested on: LK-2
How it was run: as §1

[9] = tested on: NCI-H1355
How it was run: as §1

[10] = tested on: NCI-H1734
How it was run: as §1

[11] = tested on: NCI-H1993
How it was run: as §1

[12] = tested on: NCI-H2009
How it was run: as §1

[13] = tested on: NCI-H2085
How it was run: as §1

[14] = tested on: NCI-H2228
How it was run: as §1

[15] = tested on: NCI-H2347
How it was run: as §1

[16] = tested on: NCI-H2405
How it was run: as §1

[17] = tested on: NCI-H3122
How it was run: as §1

[18] = tested on: NCI-H596
How it was run: as §1

[19] = tested on: NCI-H838
How it was run: as §1

[20] = tested on: PC-14
How it was run: as §1

[21] = tested on: RERF-LC-KJ
How it was run: as §1

[22] = tested on: SK-MES-1
How it was run: as §1

[23] = tested on: SW 1573
How it was run: as §1

Question: Which results are given for `O=c1[nH]c2ccccc2n1C1CCN(CCCC(c2ccc(F)cc2)c2ccc(F)cc2)CC1` [Pimozide] + Nc1nc2[nH]cc(CCc3ccc(C(=O)N[C@@H](CCC(=O)O)C(=O)O)cc3)c2c(=O)[nH]1 [Pemetrexed] (partner 0.2 µM)?
Answer: relative viability ([1]; first compound 0.08 µM): 1.22; relative viability ([1]; first compound 0.253 µM): 1.22; relative viability ([1]; first compound 0.8 µM): 1.14; relative viability ([1]; first compound 2.53 µM): 1.22; relative viability ([1]; first compound 8 µM): 1.11; relative viability ([2]; first compound 0.08 µM): 0.248; relative viability ([2]; first compound 0.253 µM): 0.277; relative viability ([2]; first compound 0.8 µM): 0.245; relative viability ([2]; first compound 2.53 µM): 0.267; relative viability ([2]; first compound 8 µM): 0.254; relative viability ([3]; first compound 0.08 µM): 0.464; relative viability ([3]; first compound 0.253 µM): 0.462; relative viability ([3]; first compound 0.8 µM): 0.392; relative viability ([3]; first compound 2.53 µM): 0.428; relative viability ([3]; first compound 8 µM): 0.438; relative viability ([4]; first compound 0.08 µM): 0.166; relative viability ([4]; first compound 0.253 µM): 0.173; relative viability ([4]; first compound 0.8 µM): 0.12; relative viability ([4]; first compound 2.53 µM): 0.152; relative viability ([4]; first compound 8 µM): 0.189; relative viability ([5]; first compound 0.08 µM): 0.911; relative viability ([5]; first compound 0.8 µM): 0.91; relative viability ([5]; first compound 2.53 µM): 0.872; relative viability ([5]; first compound 8 µM): 0.87; relative viability ([6]; first compound 0.08 µM): 0.275; relative viability ([6]; first compound 0.253 µM): 0.362; relative viability ([6]; first compound 2.53 µM): 0.283; relative viability ([6]; first compound 8 µM): 0.284; relative viability ([7]; first compound 0.08 µM): 0.275; relative viability ([7]; first compound 0.253 µM): 0.288; relative viability ([7]; first compound 0.8 µM): 0.259; relative viability ([7]; first compound 2.53 µM): 0.265; relative viability ([7]; first compound 8 µM): 0.254; relative viability ([8]; first compound 0.08 µM): 0.243; relative viability ([8]; first compound 0.253 µM): 0.268; relative viability ([8]; first compound 0.8 µM): 0.335; relative viability ([8]; first compound 8 µM): 0.265; relative viability ([9]; first compound 0.08 µM): 1.07; relative viability ([9]; first compound 0.253 µM): 1.01; relative viability ([9]; first compound 0.8 µM): 0.878; relative viability ([9]; first compound 2.53 µM): 1.03; relative viability ([9]; first compound 8 µM): 1.01; relative viability ([10]; first compound 0.08 µM): 0.401; relative viability ([10]; first compound 0.253 µM): 0.436; relative viability ([10]; first compound 0.8 µM): 0.401; relative viability ([10]; first compound 2.53 µM): 0.416; relative viability ([10]; first compound 8 µM): 0.434; relative viability ([11]; first compound 0.08 µM): 0.487; relative viability ([11]; first compound 0.253 µM): 0.548; relative viability ([11]; first compound 0.8 µM): 0.512; relative viability ([11]; first compound 2.53 µM): 0.482; relative viability ([11]; first compound 8 µM): 0.501; relative viability ([12]; first compound 0.08 µM): 1.07; relative viability ([12]; first compound 0.253 µM): 1; relative viability ([12]; first compound 0.8 µM): 0.975; relative viability ([12]; first compound 2.53 µM): 0.963; relative viability ([12]; first compound 8 µM): 0.973; relative viability ([13]; first compound 0.08 µM): 0.812; relative viability ([13]; first compound 0.253 µM): 1.01; relative viability ([13]; first compound 0.8 µM): 0.745; relative viability ([13]; first compound 2.53 µM): 0.938; relative viability ([13]; first compound 8 µM): 0.735; relative viability ([14]; first compound 0.08 µM): 0.329; relative viability ([14]; first compound 0.253 µM): 0.369; relative viability ([14]; first compound 0.8 µM): 0.306; relative viability ([14]; first compound 2.53 µM): 0.334; relative viability ([14]; first compound 8 µM): 0.229; relative viability ([15]; first compound 0.08 µM): 0.406; relative viability ([15]; first compound 0.253 µM): 0.449; relative viability ([15]; first compound 0.8 µM): 0.42; relative viability ([15]; first compound 2.53 µM): 0.368; relative viability ([15]; first compound 8 µM): 0.475; relative viability ([16]; first compound 0.08 µM): 0.968; relative viability ([16]; first compound 0.253 µM): 1.09; relative viability ([16]; first compound 0.8 µM): 1.05; relative viability ([16]; first compound 2.53 µM): 0.989; relative viability ([16]; first compound 8 µM): 0.88; relative viability ([17]; first compound 0.08 µM): 0.238; relative viability ([17]; first compound 0.253 µM): 0.206; relative viability ([17]; first compound 0.8 µM): 0.178; relative viability ([17]; first compound 2.53 µM): 0.195; relative viability ([17]; first compound 8 µM): 0.2; relative viability ([18]; first compound 0.08 µM): 0.538; relative viability ([18]; first compound 0.253 µM): 0.487; relative viability ([18]; first compound 0.8 µM): 0.534; relative viability ([18]; first compound 2.53 µM): 0.436; relative viability ([18]; first compound 8 µM): 0.479; relative viability ([19]; first compound 0.08 µM): 0.251; relative viability ([19]; first compound 0.253 µM): 0.242; relative viability ([19]; first compound 0.8 µM): 0.238; relative viability ([19]; first compound 2.53 µM): 0.236; relative viability ([19]; first compound 8 µM): 0.221; relative viability ([20]; first compound 0.253 µM): 0.14; relative viability ([20]; first compound 0.8 µM): 0.14; relative viability ([20]; first compound 2.53 µM): 0.0963; relative viability ([20]; first compound 8 µM): 0.063; relative viability ([21]; first compound 0.08 µM): 0.452; relative viability ([21]; first compound 0.253 µM): 0.47; relative viability ([21]; first compound 0.8 µM): 0.466; relative viability ([21]; first compound 2.53 µM): 0.347; relative viability ([21]; first compound 8 µM): 0.422; relative viability ([22]; first compound 0.08 µM): 0.982; relative viability ([22]; first compound 0.253 µM): 0.861; relative viability ([22]; first compound 0.8 µM): 0.919; relative viability ([22]; first compound 2.53 µM): 0.888; relative viability ([22]; first compound 8 µM): 0.902; relative viability ([23]; first compound 0.08 µM): 0.852; relative viability ([23]; first compound 0.253 µM): 0.849; relative viability ([23]; first compound 0.8 µM): 0.831; relative viability ([23]; first compound 2.53 µM): 0.665; relative viability ([23]; first compound 8 µM): 0.558
